Assay [1] deals with T1, Testis-specific serine/threonine-protein kinase 3 (Homo sapiens) (UniProt Q96PN8).
T1 sequence (whole entry): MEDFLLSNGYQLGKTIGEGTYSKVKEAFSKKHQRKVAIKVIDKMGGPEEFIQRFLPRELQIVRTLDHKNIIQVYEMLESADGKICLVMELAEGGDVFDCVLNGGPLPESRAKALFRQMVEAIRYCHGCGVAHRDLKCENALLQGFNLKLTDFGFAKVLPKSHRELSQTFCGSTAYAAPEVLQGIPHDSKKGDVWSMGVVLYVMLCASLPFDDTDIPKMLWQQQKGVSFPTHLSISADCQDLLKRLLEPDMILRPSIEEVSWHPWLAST
Description: Selectivity interaction (Kinase panel (Z-LYTE Assay)) EUB0001632a TSSK3. As to conditions: at 10 µM.

The target in assay [2] is T2, Serine/threonine-protein kinase 3 (Homo sapiens) (UniProt Q13188).
T2 sequence (whole entry): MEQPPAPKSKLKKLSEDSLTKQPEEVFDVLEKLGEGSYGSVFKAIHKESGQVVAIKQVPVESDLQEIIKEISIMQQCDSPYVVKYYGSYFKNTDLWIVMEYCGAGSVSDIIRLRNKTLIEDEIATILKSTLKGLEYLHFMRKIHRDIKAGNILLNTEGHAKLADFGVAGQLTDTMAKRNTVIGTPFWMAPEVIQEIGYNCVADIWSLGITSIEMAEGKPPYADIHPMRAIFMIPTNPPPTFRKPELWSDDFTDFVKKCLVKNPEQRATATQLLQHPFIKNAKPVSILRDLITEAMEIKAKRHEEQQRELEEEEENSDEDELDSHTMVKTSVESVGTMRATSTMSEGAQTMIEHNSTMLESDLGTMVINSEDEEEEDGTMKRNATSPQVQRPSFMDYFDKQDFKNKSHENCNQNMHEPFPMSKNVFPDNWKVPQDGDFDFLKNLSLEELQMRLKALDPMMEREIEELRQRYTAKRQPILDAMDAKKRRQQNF
Description: Selectivity interaction (KinomeScan (DiscoverX)) EUB0000695a STK3. To be noted: at 100 nM.

Assay [3] deals with Tyrosine-protein kinase ABL1 (Homo sapiens), P00519 [T315I]. Description: Selectivity interaction (KinomeScan (DiscoverX)) EUB0000607a ABL1. To be noted: at 10 µM.
The target of assay [4] is Vascular endothelial growth factor receptor 1 (Homo sapiens) (UniProt P17948). Put plainly: Selectivity interaction (Kinase panel (Invitrogen)) EUB0000639a FLT1. To be noted: at 200 nM.
Chain of Vascular endothelial growth factor receptor 1 (Homo sapiens) (P17948 whole entry): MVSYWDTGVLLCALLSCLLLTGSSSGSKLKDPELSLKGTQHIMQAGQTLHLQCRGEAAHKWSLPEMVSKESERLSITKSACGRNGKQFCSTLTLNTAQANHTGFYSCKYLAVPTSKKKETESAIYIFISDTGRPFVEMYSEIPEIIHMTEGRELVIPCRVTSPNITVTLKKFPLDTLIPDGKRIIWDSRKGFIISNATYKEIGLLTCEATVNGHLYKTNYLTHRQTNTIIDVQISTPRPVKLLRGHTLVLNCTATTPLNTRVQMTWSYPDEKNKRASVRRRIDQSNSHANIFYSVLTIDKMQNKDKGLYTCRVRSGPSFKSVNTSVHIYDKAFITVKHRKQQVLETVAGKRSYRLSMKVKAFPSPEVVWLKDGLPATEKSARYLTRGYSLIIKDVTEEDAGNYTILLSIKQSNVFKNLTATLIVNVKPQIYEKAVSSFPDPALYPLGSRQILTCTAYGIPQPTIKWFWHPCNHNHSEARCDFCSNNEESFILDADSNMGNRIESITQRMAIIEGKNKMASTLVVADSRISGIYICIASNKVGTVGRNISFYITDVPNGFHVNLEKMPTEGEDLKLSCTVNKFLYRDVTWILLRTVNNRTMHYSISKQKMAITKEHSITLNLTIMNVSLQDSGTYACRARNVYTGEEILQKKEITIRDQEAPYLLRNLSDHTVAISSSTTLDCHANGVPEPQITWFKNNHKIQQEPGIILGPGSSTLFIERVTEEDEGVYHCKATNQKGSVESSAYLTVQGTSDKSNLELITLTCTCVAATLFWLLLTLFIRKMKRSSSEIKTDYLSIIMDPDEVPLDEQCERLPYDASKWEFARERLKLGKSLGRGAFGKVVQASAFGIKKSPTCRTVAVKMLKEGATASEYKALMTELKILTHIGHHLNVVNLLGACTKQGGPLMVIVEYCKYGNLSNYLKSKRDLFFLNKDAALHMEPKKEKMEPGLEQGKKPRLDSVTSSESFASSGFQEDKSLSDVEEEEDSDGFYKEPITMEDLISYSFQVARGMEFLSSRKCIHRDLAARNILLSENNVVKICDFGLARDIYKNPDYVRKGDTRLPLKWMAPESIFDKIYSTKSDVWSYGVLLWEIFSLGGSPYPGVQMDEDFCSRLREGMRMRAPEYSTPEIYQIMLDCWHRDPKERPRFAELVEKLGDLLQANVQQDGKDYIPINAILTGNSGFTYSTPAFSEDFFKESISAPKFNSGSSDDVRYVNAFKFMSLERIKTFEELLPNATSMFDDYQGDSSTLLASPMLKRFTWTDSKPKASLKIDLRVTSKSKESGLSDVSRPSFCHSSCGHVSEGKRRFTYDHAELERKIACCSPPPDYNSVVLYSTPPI
In assay [5] the target is T3, Histone-arginine methyltransferase CARM1 (Homo sapiens) (UniProt Q86X55).
T3 sequence (whole entry): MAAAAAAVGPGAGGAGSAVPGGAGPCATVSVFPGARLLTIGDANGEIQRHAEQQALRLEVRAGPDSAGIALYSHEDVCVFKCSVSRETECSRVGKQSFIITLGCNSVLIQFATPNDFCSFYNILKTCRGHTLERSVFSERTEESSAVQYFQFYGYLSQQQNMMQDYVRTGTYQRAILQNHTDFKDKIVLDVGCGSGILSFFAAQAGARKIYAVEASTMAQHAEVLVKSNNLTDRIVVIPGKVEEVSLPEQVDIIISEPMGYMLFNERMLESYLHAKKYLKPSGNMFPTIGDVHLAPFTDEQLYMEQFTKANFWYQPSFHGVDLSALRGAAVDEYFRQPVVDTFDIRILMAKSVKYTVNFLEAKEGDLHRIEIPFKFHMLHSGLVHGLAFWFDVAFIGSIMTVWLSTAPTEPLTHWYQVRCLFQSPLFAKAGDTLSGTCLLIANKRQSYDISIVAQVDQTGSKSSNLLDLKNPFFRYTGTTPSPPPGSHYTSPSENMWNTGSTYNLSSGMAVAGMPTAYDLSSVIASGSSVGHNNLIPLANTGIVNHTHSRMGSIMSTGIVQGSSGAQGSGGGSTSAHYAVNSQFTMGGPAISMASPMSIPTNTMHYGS
As to conditions: KMS-12-PE, at 3 µM.

The target of assay [6] is Angiopoietin-1 receptor (Homo sapiens) (UniProt Q02763). Description: Selectivity interaction (Kinase panel (literature)) EUB0001199aCl TEK. To be noted: at 1 µM.
Chain of Angiopoietin-1 receptor (Homo sapiens) (Q02763 whole entry): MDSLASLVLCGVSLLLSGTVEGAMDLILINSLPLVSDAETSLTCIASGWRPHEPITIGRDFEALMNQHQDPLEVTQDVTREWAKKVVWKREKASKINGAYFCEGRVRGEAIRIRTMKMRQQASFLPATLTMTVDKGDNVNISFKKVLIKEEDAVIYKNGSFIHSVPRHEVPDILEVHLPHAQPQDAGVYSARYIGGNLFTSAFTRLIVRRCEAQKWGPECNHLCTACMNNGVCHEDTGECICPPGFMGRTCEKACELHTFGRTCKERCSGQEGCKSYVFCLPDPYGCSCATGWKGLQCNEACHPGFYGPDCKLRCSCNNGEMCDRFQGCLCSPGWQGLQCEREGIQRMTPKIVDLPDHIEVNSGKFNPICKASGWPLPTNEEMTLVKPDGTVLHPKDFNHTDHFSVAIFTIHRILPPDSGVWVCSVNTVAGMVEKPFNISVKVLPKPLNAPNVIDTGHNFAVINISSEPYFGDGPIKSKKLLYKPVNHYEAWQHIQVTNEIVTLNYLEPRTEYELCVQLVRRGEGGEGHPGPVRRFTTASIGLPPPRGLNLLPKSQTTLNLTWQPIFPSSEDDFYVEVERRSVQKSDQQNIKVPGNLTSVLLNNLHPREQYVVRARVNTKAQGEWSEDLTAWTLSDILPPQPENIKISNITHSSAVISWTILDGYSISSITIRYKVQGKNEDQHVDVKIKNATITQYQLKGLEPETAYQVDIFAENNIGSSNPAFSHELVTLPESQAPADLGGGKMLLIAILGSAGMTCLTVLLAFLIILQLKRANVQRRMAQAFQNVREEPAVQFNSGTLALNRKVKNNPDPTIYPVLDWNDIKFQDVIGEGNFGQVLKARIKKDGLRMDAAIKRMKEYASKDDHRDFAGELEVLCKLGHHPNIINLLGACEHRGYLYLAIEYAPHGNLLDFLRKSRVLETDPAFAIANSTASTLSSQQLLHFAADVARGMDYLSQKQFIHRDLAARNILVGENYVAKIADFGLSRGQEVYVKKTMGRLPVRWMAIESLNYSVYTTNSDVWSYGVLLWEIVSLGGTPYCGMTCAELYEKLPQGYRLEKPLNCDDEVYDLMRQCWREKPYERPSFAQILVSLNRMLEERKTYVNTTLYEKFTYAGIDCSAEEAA
The target of assay [7] is T4, Prostaglandin G/H synthase 2 (Homo sapiens) (UniProt P35354).
T4 sequence (whole entry): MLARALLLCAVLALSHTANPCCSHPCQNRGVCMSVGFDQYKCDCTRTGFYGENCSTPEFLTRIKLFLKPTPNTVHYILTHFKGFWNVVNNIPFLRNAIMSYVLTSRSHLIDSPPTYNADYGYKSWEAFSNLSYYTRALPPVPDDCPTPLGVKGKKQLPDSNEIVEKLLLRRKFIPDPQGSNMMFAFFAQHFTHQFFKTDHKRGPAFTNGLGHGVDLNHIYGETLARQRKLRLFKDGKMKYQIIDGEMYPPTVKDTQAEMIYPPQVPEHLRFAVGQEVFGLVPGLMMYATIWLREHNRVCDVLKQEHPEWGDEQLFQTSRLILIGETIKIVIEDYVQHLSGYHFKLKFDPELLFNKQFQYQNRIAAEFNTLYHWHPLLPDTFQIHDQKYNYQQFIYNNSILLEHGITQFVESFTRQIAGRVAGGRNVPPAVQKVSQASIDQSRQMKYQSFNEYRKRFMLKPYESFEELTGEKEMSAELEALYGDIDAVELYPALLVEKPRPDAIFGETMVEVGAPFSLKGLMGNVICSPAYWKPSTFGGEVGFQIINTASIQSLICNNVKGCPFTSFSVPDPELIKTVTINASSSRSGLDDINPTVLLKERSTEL
Description: Selectivity interaction (Safety Panel 44tm (Eurofins)) EUB0000162b PTGS2. To be noted: at 10 µM.

In assay [8] the target is Mitogen-activated protein kinase kinase kinase 10 (Homo sapiens) (UniProt Q02779). Put plainly: Selectivity interaction (Ambit KINOMEscan and KiNATiv profiling in Jurkat cells) EUB0000090b MAP3K10. The class given is cell-based. To be noted: at 1 µM.
Chain of Mitogen-activated protein kinase kinase kinase 10 (Homo sapiens) (Q02779 whole entry, looked up): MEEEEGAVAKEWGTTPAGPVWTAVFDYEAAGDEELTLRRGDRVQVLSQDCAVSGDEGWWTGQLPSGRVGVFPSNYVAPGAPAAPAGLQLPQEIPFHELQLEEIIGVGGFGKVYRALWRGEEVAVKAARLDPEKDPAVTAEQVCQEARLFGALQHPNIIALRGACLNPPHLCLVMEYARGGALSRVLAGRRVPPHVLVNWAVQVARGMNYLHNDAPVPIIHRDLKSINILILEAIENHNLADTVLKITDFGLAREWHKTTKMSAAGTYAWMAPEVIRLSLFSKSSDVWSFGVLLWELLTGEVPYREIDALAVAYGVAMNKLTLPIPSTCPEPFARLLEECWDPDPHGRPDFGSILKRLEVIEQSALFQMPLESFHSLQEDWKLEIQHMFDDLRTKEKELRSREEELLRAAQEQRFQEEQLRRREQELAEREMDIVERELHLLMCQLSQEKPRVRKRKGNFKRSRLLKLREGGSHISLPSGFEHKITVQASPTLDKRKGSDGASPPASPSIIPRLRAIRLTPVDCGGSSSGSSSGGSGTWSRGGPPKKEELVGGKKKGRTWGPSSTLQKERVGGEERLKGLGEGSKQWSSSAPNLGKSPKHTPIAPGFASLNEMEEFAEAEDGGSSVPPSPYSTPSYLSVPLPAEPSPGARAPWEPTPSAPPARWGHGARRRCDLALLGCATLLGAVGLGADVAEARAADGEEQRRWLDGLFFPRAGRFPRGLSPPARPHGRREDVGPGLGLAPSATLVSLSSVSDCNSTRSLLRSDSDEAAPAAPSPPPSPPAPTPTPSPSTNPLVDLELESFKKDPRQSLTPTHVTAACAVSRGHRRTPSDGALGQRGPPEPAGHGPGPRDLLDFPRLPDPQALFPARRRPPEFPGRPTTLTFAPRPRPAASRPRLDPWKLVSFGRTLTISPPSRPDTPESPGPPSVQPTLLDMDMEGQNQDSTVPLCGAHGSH
The target in assay [9] is T5, Atypical kinase COQ8B, mitochondrial (Homo sapiens) (UniProt Q96D53).
T5 sequence (whole entry): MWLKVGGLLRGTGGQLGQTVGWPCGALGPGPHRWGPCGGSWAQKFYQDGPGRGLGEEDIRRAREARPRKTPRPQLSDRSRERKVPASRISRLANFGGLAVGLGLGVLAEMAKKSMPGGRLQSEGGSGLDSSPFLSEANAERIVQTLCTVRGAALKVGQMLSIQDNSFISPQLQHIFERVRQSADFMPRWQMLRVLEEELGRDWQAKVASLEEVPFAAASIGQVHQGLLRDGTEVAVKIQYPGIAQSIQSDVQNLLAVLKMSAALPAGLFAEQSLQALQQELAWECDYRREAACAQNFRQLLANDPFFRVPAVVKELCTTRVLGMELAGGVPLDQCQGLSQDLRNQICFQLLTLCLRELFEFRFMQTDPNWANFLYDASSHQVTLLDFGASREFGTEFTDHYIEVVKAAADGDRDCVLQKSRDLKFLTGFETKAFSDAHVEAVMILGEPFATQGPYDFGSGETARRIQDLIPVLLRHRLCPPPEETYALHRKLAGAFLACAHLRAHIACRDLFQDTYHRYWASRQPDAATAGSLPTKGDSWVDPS
Put plainly: Selectivity interaction (KinomeScan (DiscoverX)) EUB0000655a ADCK4. As to conditions: at 10 µM.

Experimental findings from ChEMBL document CHEMBL5465560, “Selectivity Literature for EUbOPEN Chemogenomic Library” (2024) are described below.

In turn, `Cn1cc(-n2cnc3c(NCc4nc5cc(Cl)c(Cl)cc5[nH]4)nc(N4CCOCC4)nc32)cn1` came in with a % of control in assay [1] of 4.44%.

`Cc1cc(F)c(C(=O)Nc2cccc(-c3nncn3C(C)C)n2)cc1-n1cnc(C2CC2)c1` returned a % of control in assay [2] of 100%.

Turning to `CNC(=O)Nc1ccc(-c2nc(N3CC4CCC(C3)O4)c3cnn(C4CCC5(CC4)OCCO5)c3n2)cc1`, in assay [3], the % of control came out at 80%.

`CC[C@@H]1[C@H](F)C(=O)N[C@@H]1COc1nccc2cc(C(N)=O)c(OC)cc12` [ZIMLOVISERTIB] returned a % of inhibition in assay [4] of 3.08%.

In the case of `CNCCN1CCC(c2cc(CN(C)C(=O)c3cccc(Oc4ccccc4)c3)ccn2)CC1`, the % of growth rate in [5] was -4.4%.

In turn, `CN1Cc2nccc(-c3cn(C)nc3-c3ccc(F)cc3)c2C1=O` had a % of inhibition in [6] of 1%.

`CN(C)C(=O)Cn1cc(-c2ccc(-c3cncc4ccccc34)cc2)cn1` registered a % of control in [7] of 81%.

In the case of `CN(C)C/C=C/C(=O)Nc1ccc(C(=O)N2CCCC(Nc3ncc(Cl)c(-c4c[nH]c5ccccc45)n3)C2)cc1` (centres undefined), the % of control in assay [8] amounted to 100%.

For `CN(C)CCOc1ccc(-c2nc(-c3ccncc3)c(-c3ccc4c(c3)CC/C4=N\O)[nH]2)cc1`, the % of control in assay [9] stood at 45%.
